According to US9101640B2, “Use of Danshensu, Notoginsenoside R1 or their combination in preparation of medicaments for preventing and treating diseases caused by microcirculation disorder” (Tasly Pharmaceutical Group Co., Ltd., priority 2009, dated 2015):
Entries after “also recorded” stand apart in the source; their conditions may differ.

System: mesenteric venules
Experiment: Diameters of mesenteric venules after I/R
Assay type: in vivo
Conditions: rat mesenteric I/R
Experimental: The rats were anesthetized by intraperitoneal injection of pentobarbital sodium (30 mg/kg body weight (BW)). PE venous cannulas (#3) were cannulated into the right jugular of the rats and detained. The abdomen of each rat was incised in a length of 20-30 mm along the midline. The ileum near the ileocecal junctions was gently taken out and unfolded onto the object stage mounted with glass slides. The unfolded mesenteries were continuously dripped with Krebs-Ringer buffering solution at 37° C. The microcirculatory dynamics of the mesenteries was observed under white light (12V, 100 W) using an inverted biomicroscope (Diaphot TMD-2S, Nikon, Tokyo) placed in the thermostat at 37° C. Observation sites were selected under 20× object lens, and a video recording system with a time-displaying function was used to record what had been observed on S-VHS tape and preserved. […] Normal saline was administrated at 20 min before ischemia until the end of the observation by continuously intravenous drip via jugular at a dosage of 5 mg/kg/h. PE cannulas were used to ligate non-circulatory mesenteric arteries and veins, so as to observe the arteries and veins for 10 min, and then the ligation was lifted. Time was adjusted to zero and the microcirculatory dynamics under the same visual field was continuously observed for 60 min. DLA was administrated at 20 min before ischemia until the end of the observation by continuously intravenous drip via jugular at a dosage of 5 mg/kg/h. R1 was administrated at 20 min before ischemia until the end of the observation by continuously intravenous drip via jugular at a dosage of 5 mg/kg/h. The combination of DLA and R1 in a weight ratio of 4:1 was administrated at 20 min before ischemia until the end of the observation by continuously intravenous drip via jugular at a dosage of 5 mg/kg/h. The combination of DLA and R1 in a weight ratio of 1:1 was administrated at 20 min before ischemia until the end of the observation by continuously intravenous drip via jugular at a dosage of 5 mg/kg/h. […] Wherein, 6 rats in each group were taken out, these rats were used for observing the following aspects: the venular diameters; leukocytes rolling, adhesion, and emigration and DHR fluorescence intensities of the venular walls. […] Microcirculatory dynamics was continuously recorded using an inverted biomicroscope […] recording system (CC-090, Flovel, Tokyo) and SIT fluorescent camera (C-2400-08, Hamamatsu Photonics, Hamamatsu). 3 sites of the mesenteric venules were measured using Image-Pro Plus 5.0 software from the replayed CD records at the following time points: before ischemia and 1 min, 10 min, 20 min, 30 min, 40 min, 50 min and 60 min after the beginning of the reperfusion. The average diameters were calculated.

Compound	effect on the diameters of the mesenteric venules after reperfusion (post-administration, 5 mg/kg/h continuous i.v. drip from 20 min after ischemia (DLA: 10 min after I/R))	effect on the diameters of the mesenteric venules after reperfusion (pre-administration, 5 mg/kg/h continuous i.v. drip from 20 min before ischemia, 60 min reperfusion)	effect on the diameters of the mesenteric venules after reperfusion (post-administration, 5 mg/kg/h continuous i.v. drip from 20 min after ischemia (DLA: 10 min after I/R), 5 mg/kg)	effect on the diameters of the mesenteric venules after reperfusion (pre-administration, 5 mg/kg/h continuous i.v. drip from 20 min before ischemia, 60 min reperfusion, 5 mg/kg)
O=C(O)C(O)Cc1ccc(O)c(O)c1 (stereo not shown) [DLA, 3,4-dihydroxyphenyl lactic acid]	did not cause the significant changes	did not cause the significant changes	–	–
CC(C)=CCC[C@](C)(O[C@@H]1O[C@H](CO)[C@@H](O)[C@H](O)[C@H]1O)[C@H]1CC[C@]2(C)[C@@H]1[C@H](O)C[C@@H]1[C@@]3(C)CC[C@H](O)C(C)(C)[C@@H]3[C@@H](O[C@@H]3O[C@H](CO)[C@@H](O)[C@H](O)[C@H]3O[C@@H]3OC[C@@H](O)[C@H](O)[C@H]3O)C[C@]12C [R1, Notoginsenoside R1]	–	–	did not cause the significant changes; also recorded: have no significant inhibitory effects	did not cause the significant changes; also recorded: have no significant inhibitory effects
